The values that follow come from patent US20170107229A1, “SUBSTITUTED TETRAHYDROPYRIDOTHIENOPYRIMIDINES” (BAYER PHARMA AKTIENGESELLSCHAFT, priority 2014, published 2017).

The target in this assay is T1, human full-length MKNK1 (Homo sapiens, UniProt Q9BUB5, T385D).
T1 construct: GST (N); purchased Carna Biosciences 02-145; host or cells: insect cells (baculovirus expression system)
The assay is described as follows: MKNK1 kinase high ATP assay (TR-FRET). Type of assay: biochemical. To be noted: high ATP (2 mM final), 15 min preincubation with enzyme, GST-MKNK1 (T344D). The procedure: MKNK1-inhibitory activity at high ATP of compounds of the present invention after their preincubation with MKNK1 was quantified employing the TR-FRET-based MKNK1 high ATP assay as described in the following paragraphs.
A recombinant fusion protein of Glutathione-S-Transferase (GST, N-terminally) and human full-length MKNK1 (amino acids 1-424 and T344D of accession number BAA 19885.1), expressed in insect cells using baculovirus expression system and purified via glutathione sepharose affinity chromatography, was purchased from Carna Biosciences (product no 02-145) and used as enzyme. As substrate for the kinase reaction the biotinylated peptide biotin-Ahx-IKKRKLTRRKSLKG (C-terminus in amide form) was used, which can be purchased e.g. from the company Biosyntan (Berlin-Buch, Germany).
For the assay 50 nL of a 100fold concentrated solution of the test compound in DMSO was pipetted into a black low volume 384well microtiter plate (Greiner Bio-One, Frickenhausen, Germany), 2 μL of a solution of MKNK1 in aqueous assay buffer [50 mM HEPES pH 7.5, 5 mM MgCl2, 1.0 mM dithiothreitol, 0.005% (v/v) Nonidet-P40 (Sigma)] was added and the mixture was incubated for 15 min at 22° C. to allow pre-binding of the test compounds to the enzyme before the start of the kinase reaction. Then the kinase reaction was started by the addition of 3 μL of a solution of adenosine-tri-phosphate (ATP, 3.3 mM=>final conc. in the 5 μL assay volume is 2 mM) and substrate (0.1 μM=>final conc. in the 5 μL assay volume is 0.06 μM) in assay buffer and the resulting mixture was incubated for a reaction time of 30 min at 22° C. The concentration of MKNK1 was adjusted depending of the activity of the enzyme lot and was chosen appropriate to have the assay in the linear range, typical concentrations were in the range of 0.003 μg/mL. The reaction was stopped by the addition of 5 μL of a solution of TR-FRET detection reagents (5 nM streptavidine-XL665 [Cisbio Bioassays, Codolet, France] and 1 nM anti-ribosomal protein S6 (pSer236)-antibody from Invitrogen [#44921G] and 1 nM LANCE EU-W1024 labeled ProteinG [Perkin-Elmer, product no. AD0071]) in an aqueous EDTA-solution (100 mM EDTA, 0.1% (w/v) bovine serum albumin in 50 mM HEPES pH 7.5).
The resulting mixture was incubated for 1 h at 22° C. to allow the formation of complex between the phosphorylated biotinylated peptide and the detection reagents. Subsequently the amount of phosphorylated substrate was evaluated by measurement of the resonance energy transfer from the Eu-chelate to the streptavidine-XL. Therefore, the fluorescence emissions at 620 nm and 665 nm after excitation at 350 nm were measured in a TR-FRET reader, e.g. a Rubystar (BMG Labtechnologies, Offenburg, Germany) or a Viewlux (Perkin-Elmer). The ratio of the emissions at 665 nm and at […] was taken as the measure for the amount of phosphorylated substrate. The data were normalised (enzyme reaction without inhibitor=0% inhibition, all other assay components but no enzyme=100% inhibition).
Background: TR-FRET usually uses a lanthanide donor and a delayed reading to cut background.

T1 sequence (Q9BUB5 1-424 isoform Q9BUB5-2 T344D): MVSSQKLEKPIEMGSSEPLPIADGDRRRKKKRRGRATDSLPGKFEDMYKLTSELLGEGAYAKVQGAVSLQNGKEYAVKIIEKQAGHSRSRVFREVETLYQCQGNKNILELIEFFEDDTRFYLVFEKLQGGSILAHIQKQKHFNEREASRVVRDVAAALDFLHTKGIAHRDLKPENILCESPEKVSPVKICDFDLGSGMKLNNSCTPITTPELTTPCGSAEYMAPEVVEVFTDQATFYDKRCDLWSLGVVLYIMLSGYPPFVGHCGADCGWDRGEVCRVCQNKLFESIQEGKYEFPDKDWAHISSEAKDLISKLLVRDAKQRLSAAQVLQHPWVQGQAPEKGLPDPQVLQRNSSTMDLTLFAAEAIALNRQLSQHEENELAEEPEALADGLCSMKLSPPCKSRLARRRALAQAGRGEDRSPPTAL

In turn, `CSc1cc2[nH]ncc2cc1Nc1ncnc2sc3c(c12)CCNC3` [Example 1, N-[6-(Methylsulfanyl)-1H-indazol-5-yl]-5,6,7,8-tetrahydropyrido[4′,3′:4,5]thieno[2,3-d]pyrimidin-4-amine] showed an IC50 of 24 nM.

As for `CSc1cc2[nH]ncc2cc1Nc1ncnc2sc3c(c12)CCN(C(=O)OC(C)(C)C)C3` [Example 2, tert-Butyl 4-{[6-(methylsulfanyl)-1H-indazol-5-yl]amino}-5,8-dihydropyrido[4′,3′:4,5]thieno[2,3-d]pyrimidine-7(6H)-carboxylate], it took 16 nM to reach half-maximal inhibition (IC50).

`CC(C)(C)OC(=O)N1CCc2c(sc3ncnc(Nc4ccc5[nH]c(=O)sc5c4)c23)C1` [Example 3, tert-Butyl 4-[(2-oxo-2,3-dihydro-1,3-benzothiazol-6-yl)amino]-5,8-dihydropyrido[4′,3′:4,5]thieno[2,3-d]pyrimidine-7(6H)-carboxylate]: the midpoint of inhibition, the IC50, lay at 71 nM.

In the case of `COc1cc2[nH]ncc2cc1Nc1ncnc2sc3c(c12)CCN(C(=O)OC(C)(C)C)C3` [Example 4, tert-Butyl 4-[(6-methoxy-1H-indazol-5-yl)amino]-5,8-dihydropyrido[4′,3′:4,5]thieno[2,3-d]pyrimidine-7(6H)-carboxylate], it took 6 nM to reach half-maximal inhibition (IC50).

Compound `CC(C)(C)OC(=O)N1CCc2c(sc3ncnc(Nc4ccc5[nH]ncc5c4)c23)C1` [Example 5, tert-Butyl 4-(1H-indazol-5-ylamino)-5,8-dihydropyrido[4′,3′:4,5]thieno[2,3-d]pyrimidine-7(6H)-carboxylate] yielded an IC50 of 18 nM.

`CC(C)(C)OC(=O)N1CCc2c(sc3ncnc(Nc4cnc5[nH]ncc5c4)c23)C1` [Example 6, tert-Butyl 4-(1H-pyrazolo[3,4-b]pyridin-5-ylamino)-5,8-dihydropyrido[4′,3′:4,5]thieno[2,3-d]pyrimidine-7(6H)-carboxylate]: the half-maximal inhibitory concentration (IC50) was found to be 47 nM.

On to `CC(C)(C)OC(=O)N1CCc2c(sc3ncnc(Nc4cc5cn[nH]c5cn4)c23)C1` [Example 7, tert-Butyl 4-(1H-pyrazolo[3,4-c]pyridin-5-ylamino)-5,8-dihydropyrido[4′,3′:4,5]thieno[2,3-d]pyrimidine-7(6H)-carboxylate], for which the IC50 is 79 nM.

Compound `COc1cc2[nH]ncc2cc1Nc1ncnc2sc3c(c12)CCNC3` [Example 8, N-(6-Methoxy-1H-indazol-5-yl)-5,6,7,8-tetrahydropyrido[4′,3′:4,5]thieno[2,3-d]pyrimidin-4-amine] showed an IC50 of 13 nM.

Turning to `COc1cc2[nH]ncc2cc1Nc1ncnc2sc3c(c12)CCN(C(=O)CCCS(C)(=O)=O)C3` [Example 9, 1-{4-[(6-Methoxy-1H-indazol-5-yl)amino]-5,8-dihydropyrido[4′,3′:4,5]thieno[2,3-d]pyrimidin-7(6H)-yl}-4-(methylsulfonyl)butan-1-one], the IC50 turned out to be 2 nM.

On to `FC(F)(F)CN1CCc2c(sc3ncnc(Nc4cnc5[nH]ncc5c4)c23)C1` [Example 10, N-(1H-Pyrazolo[3,4-b]pyridin-5-yl)-7-(2,2,2-trifluoroethyl)-5,6,7,8-tetrahydropyrido[4′,3′:4,5]thieno[2,3-d]pyrimidin-4-amine], for which the IC50 amounted to 79 nM.

With `CSc1cc2[nH]ncc2cc1Nc1ncnc2sc3c(c12)CCN(CC(F)(F)F)C3` [Example 11, N-[6-(Methylsulfanyl)-1H-indazol-5-yl]-7-(2,2,2-trifluoroethyl)-5,6,7,8-tetrahydropyrido[4′,3′:4,5]thieno[2,3-d]pyrimidin-4-amine], inhibition was half-maximal at 15 nM (IC50).

Take `COc1cc2[nH]ncc2cc1Nc1ncnc2sc3c(c12)CCN(CC(F)(F)F)C3` [Example 12, N-(6-Methoxy-1H-indazol-5-yl)-7-(2,2,2-trifluoroethyl)-5,6,7,8-tetrahydropyrido[4′3′:4,5]thieno[2,3-d]pyrimidin-4-amine]: the IC50 stood at 99 nM.

For `CN(C)C(=O)N1CCc2c(sc3ncnc(Nc4cnc5[nH]ncc5c4)c23)C1` [Example 13, N,N-Dimethyl-4-(1H-pyrazolo[3,4-b]pyridin-5-ylamino)-5,8-dihydropyrido[4′,3′:4,5]thieno[2,3-d]pyrimidine-7(6H)-carboxamide], the IC50 worked out at 48 nM.

`CN(C)C(=O)N1CCc2c(sc3ncnc(Nc4cc5cn[nH]c5cn4)c23)C1` [Example 14, N,N-Dimethyl-4-(1H-pyrazolo[3,4-c]pyridin-5-ylamino)-5,8-dihydropyrido[4′,3′:4,5]thieno[2,3-d]pyrimidine-7(6H)-carboxamide] came in with an IC50 of 30 nM.

Take `CN(C)C(=O)N1CCc2c(sc3ncnc(Nc4ccc5[nH]ncc5c4)c23)C1` [Example 15, 4-(1H-Indazol-5-ylamino)-N,N-dimethyl-5,8-dihydropyrido[4′,3′:4,5]thieno[2,3-d]pyrimidine-7(6H)-carboxamide]: the concentration for half-maximal inhibition (IC50) stood at 32 nM.

In turn, `COc1cc2[nH]ncc2cc1Nc1ncnc2sc3c(c12)CCN(C(=O)N(C)C)C3` [Example 16, 4-[(6-Methoxy-1H-indazol-5-yl)amino]-N,N-dimethyl-5,8-dihydropyrido[4′,3′:4,5]thieno[2,3-d]pyrimidine-7(6H)-carboxamide] came in with an IC50 of 4 nM.

Compound `CN(C)C(=O)N1CCc2c(sc3ncnc(Nc4ccc5[nH]c(=O)sc5c4)c23)C1` [Example 17, N,N-Dimethyl-4-[(2-oxo-2,3-dihydro-1,3-benzothiazol-6-yl)amino]-5,8-dihydropyrido[4′,3′:4,5]thieno[2,3-d]pyrimidine-7(6H)-carboxamide] showed an IC50 of 88 nM.

With `CC(C)C(=O)N1CCc2c(sc3ncnc(Nc4ccc5[nH]c(=O)sc5c4)c23)C1` [Example 18, 6-[(7-Isobutyryl-5,6,7,8-tetrahydropyrido[4′,3′:4,5]thieno[2,3-d]pyrimidin-4-yl)amino]-1,3-benzothiazol-2(3H)-one], the IC50 came out at 113 nM.

For the compound `CC(C)C(=O)N1CCc2c(sc3ncnc(Nc4ccc5[nH]ncc5c4)c23)C1` [Example 19, 1-[4-(1H-indazol-5-ylamino)-5,8-dihydropyrido[4′,3′:4,5]thieno[2,3-d]pyrimidin-7(6H)-yl]-2-methylpropan-1-one], the 50% inhibitory concentration (IC50) worked out at 15 nM.

In the case of `CC(C)C(=O)N1CCc2c(sc3ncnc(Nc4cc5cn[nH]c5cn4)c23)C1` [Example 20, 2-Methyl-1-[4-(1H-pyrazolo[3,4-c]pyridin-5-ylamino)-5,8-dihydropyrido[4′,3′:4,5]thieno[2,3-d]pyrimidin-7(6H)-yl]propan-1-one], the IC50 came to 28 nM.

`CC(C)C(=O)N1CCc2c(sc3ncnc(Nc4cnc5[nH]ncc5c4)c23)C1` [Example 21, 2-Methyl-1-[4-(1H-pyrazolo[3,4-b]pyridin-5-ylamino)-5,8-dihydropyrido[4′,3′:4,5]thieno[2,3-d]pyrimidin-7(6H)-yl]propan-1-one]: the IC50 is 40 nM.

Consider `COc1cc2[nH]ncc2cc1Nc1ncnc2sc3c(c12)CCN(C(=O)C(C)C)C3` [Example 22, 1-{4-[(6-Methoxy-1H-indazol-5-yl)amino]-5,8-dihydropyrido[4′,3′:4,5]thieno[2,3-d]pyrimidin-7(6H)-yl}-2-methylpropan-1-one], for which the midpoint of inhibition, the IC50, lay at 4 nM.

In turn, `CS(=O)(=O)N1CCc2c(sc3ncnc(Nc4cc5cn[nH]c5cn4)c23)C1` [Example 23, 7-(Methylsulfonyl)-N-(1H-pyrazolo[3,4-c]pyridin-5-yl)-5,6,7,8-tetrahydropyrido[4′,3′:4,5]thieno[2,3-d]pyrimidin-4-amine] yielded an IC50 of 25 nM.

Compound `O=C(N1CCOCC1)N1CCc2c(sc3ncnc(Nc4cc5cn[nH]c5cn4)c23)C1` [Example 24, Morpholin-4-yl[4-(1H-pyrazolo[3,4-c]pyridin-5-ylamino)-5,8-dihydropyrido[4′,3′:4,5]thieno[2,3-d]pyrimidin-7(6H)-yl]methanone] gave an IC50 of 28 nM.

In turn, `CC(C)(C)OC(=O)N1CCc2c(sc3ncnc(Nc4cc5cn[nH]c5cc4Br)c23)C1` [Example 25, tert-Butyl 4-[(6-bromo-1H-indazol-5-yl)amino]-5,8-dihydropyrido[4′,3′:4,5]thieno[2,3-d]pyrimidine-7(6H)-carboxylate] came in with an IC50 of 31 nM.

A word on the IC50: it is the concentration needed to halve the response being measured.
